Measured values published in patent publication US6933260B2, “Avermectin B1 derivatives having an aminosulfonyloxy substituent in the 4′-position” (Syngenta Crop Protection, Inc., priority 2001, dated 2005).

Legend:
Assay type in all cases: in vivo
Spodoptera littoralis = assay: Action against Spodoptera littoralis (foliar spray on soybean plants); conditions: 72 h, 12.5 ppm spray, caterpillars in the first stage, 3 days, read-out: percentage reduction in population and percentage reduction in feeding damage (% activity)
Protocol: Young soybean plants are sprayed with an aqueous emulsion spray mixture comprising 12.5 ppm of test compound and, after the spray-coating has dried, the plants are populated with 10 caterpillars of Spodoptera littoralis in the first stage and then placed in a plastics container. 3 days later, the percentage reduction in population and the percentage reduction in feeding damage (% activity) are determined by comparing the number of dead caterpillars and the feeding damage on the treated plants with that on untreated plants.

Diabrotica balteata = assay: Action against Diabrotica balteata (spray on maize seedlings); conditions: 144 h, 12.5 ppm spray, larvae in the second stage, 6 days, read-out: percentage reduction in population (% activity)
Protocol: Maize seedlings are sprayed with an aqueous emulsion spray mixture comprising 12.5 ppm of the test compound and, after the spray-coating has dried, the maize seedlings are populated with 10 Diabrotica balteata larvae in the second stage and then placed in a plastics container. 6 days later, the percentage reduction in population (% activity) is determined by comparing the number of dead larvae on the treated plants with that on untreated plants.

Tetranychus urticae = assay: Action against Tetranychus urticae (spray on bean plants); conditions: 144 h, 12.5 ppm spray, mixed population, 6 days at 25° C., read-out: percentage reduction in population (% activity)
Protocol: Young bean plants are populated with a mixed population of Tetranychus urticae and sprayed one day later with an aqueous emulsion spray mixture comprising 12.5 ppm of test compound. The plants are incubated for 6 days at 25° C. and subsequently evaluated. The percentage reduction in population (% activity) is determined by comparing the number of dead eggs, larvae and adults on the treated plants with that on untreated plants.

Plutella xylostella = assay: Action against Plutella xylostella caterpillars (spray on cabbage plants); conditions: 72 h, 12.5 ppm spray, caterpillars in the first stage, 3 days, read-out: percentage reduction in population and percentage reduction in feeding damage (% activity)
Protocol: Young cabbage plants are sprayed with an aqueous emulsion spray mixture comprising 12.5 ppm of test compound. After the spray-coating has dried, the cabbage plants are populated with 10 caterpillars of Plutella xylostella in the first stage and placed in a plastics container. Evaluation is made 3 days later. The percentage reduction in population and the percentage reduction in feeding damage (% activity) are determined by comparing the number of dead caterpillars and the feeding damage on the treated plants with that on the untreated plants.

Measured: inhibition at 12.5 ppm

CCC(C)[C@H]1O[C@]2(C=C[C@@H]1C)C[C@@H]1C[C@@H](C/C=C(\C)[C@@H](O[C@H]3C[C@H](OC)[C@@H](O[C@H]4C[C@H](OC)[C@@H](OS(N)(=O)=O)[C@H](C)O4)[C@H](C)O3)[C@@H](C)/C=C/C=C3\CO[C@@H]4[C@H](O)C(C)=C[C@@H](C(=O)O1)[C@]34O)O2 (some centres unmarked) [P.1, 4″-sulfamoyloxy-avermectin B1]
> 80%: all assays above

CCC(C)[C@H]1O[C@]2(C=C[C@@H]1C)C[C@@H]1C[C@@H](C/C=C(\C)[C@@H](O[C@H]3C[C@H](OC)[C@@H](O[C@H]4C[C@H](OC)[C@@H](OS(=O)(=O)NC)[C@H](C)O4)[C@H](C)O3)[C@@H](C)/C=C/C=C3\CO[C@@H]4[C@H](O)C(C)=C[C@@H](C(=O)O1)[C@]34O)O2 (some centres unmarked) [P.2, 4″-methylaminosulfonyloxy-avermectin B1]
> 80%: all assays above

CCNS(=O)(=O)O[C@H]1[C@H](C)O[C@@H](O[C@H]2[C@H](C)O[C@@H](O[C@@H]3/C(C)=C/C[C@@H]4C[C@@H](C[C@]5(C=C[C@H](C)[C@@H](C(C)CC)O5)O4)OC(=O)[C@@H]4C=C(C)[C@@H](O)[C@H]5OC/C(=C\C=C\[C@@H]3C)[C@]54O)C[C@@H]2OC)C[C@@H]1OC (some centres unmarked) [P.3, 4″-ethylaminosulfonyloxy-avermectin B1]
> 80%: Diabrotica balteata | Tetranychus urticae | Plutella xylostella

CCC(C)[C@H]1O[C@]2(C=C[C@@H]1C)C[C@@H]1C[C@@H](C/C=C(\C)[C@@H](O[C@H]3C[C@H](OC)[C@@H](O[C@H]4C[C@H](OC)[C@@H](OS(=O)(=O)N(C)C)[C@H](C)O4)[C@H](C)O3)[C@@H](C)/C=C/C=C3\CO[C@@H]4[C@H](O)C(C)=C[C@@H](C(=O)O1)[C@]34O)O2 (some centres unmarked) [P.7, 4″-dimethylaminosulfonyloxy-avermectin B1]
> 80%: Diabrotica balteata | Tetranychus urticae | Plutella xylostella
